pIC50: −log10 of the molar value. Read-outs that look alike come from different tables or passages of the source.
Tests used:
human N-type Ca channel [1] = molecular target: T1, human N-type Ca channel (Homo sapiens, UniProt Q00975); assay: Calcium influx assay (FDSS), KCl depolarization, Fluo8 dye; type: cell-based; design: host or cells: HEK 293; conditions: HEK 293 cells expressing human N-type Ca channel; 100 mM KCl; read-out: N Type IC50 Data FDSS
Procedure: All cell culture reagents were procured from HyClone and other reagents were from Fisher. Recombinant HEK 293 cells expressing human N-type Ca channel (Millipore) were maintained in DMEM F12 containing 10% FBS and selection antibiotics at 37 °C in 5% CO2.
Cells were incubated at 30 °C in 5% CO2 overnight. The medium was removed and cells were loaded with Fluo8 dye (AAT Bioquest) at 37 °C and 30 °C, 30 min each in darkness. Cells were washed four times with wash buffer (16 mM Herep pH 7.2, 2 mM CaCl2, 1 mM MgCl2, 5 mM glucose, 140 mM choline chloride and 2 mM KCl) leaving 15 µL buffer after the last wash. Compounds of Formula (I), serially diluted, were added to the cell plate. The plates were incubated in darkness for 15 min. Cells were depolarized with 100 mM KCl and Ca influx was measured.

human N-type Ca channel [2] = molecular target: T1, human N-type Ca channel; assay: Electrophysiological response, QPatch (depolarization -80 mV to +20 mV)
Procedure: The recombinant cell line described above was used in the measurement of electrophysiological properties with QPatch (Sophion). Cells were maintained in culture as mentioned above. Prior to the experiment, the flasks were moved to 30 °C and incubated for 48-72 hrs. On the day of assaying, cells were detached and harvested. The cell pellet was re-suspended in SMF4HEK (HyClone)/25mM HEPS at 2-5 million/ mL and placed on the QStirrer of the QPatch for 30-60 min prior to the start of the assay. […] Microtiter-Plate/Reference Buffer contained 140 mM TEA-Cl, 10mM BaCl2, 0.8 mM MgCl2, 10 mM HEPES pH ∼7.4 adjusted with TEA-OH/HCl, and ∼300mOsm. Cells were transferred to a QPatch 48 plate and gigaseal was formed. The plate was perfused with intracellular and extracellular buffer. […] In brief, cells were depolarized from resting potential of -80 mV to +20 mV and current was recorded. Data was plotted as percent inhibition vs concentration of the compound and IC50 values were generated using Graphpad Prism non-linear regression analysis.

[3] = N Type IC50 Data Qpatch Pulse=1, Pulse=1, concentration range 0.01-1 µM
[4] = N Type IC50 Data Qpatch Pulse=15, Pulse=15, concentration range 0.01-1 µM
[5] = Pulse=1, concentration range 0.01-0.3 µM
[6] = Pulse=15, concentration range 0.01-0.3 µM
[7] = read-out: Qpatch Pulse=1 (percent inhibition)
[8] = read-out: N Type IC50 Data Qpatch Pulse=15, Pulse=15, concentration range 0.01-1 µM
[9] = N Type IC50 Data Qpatch Pulse=1, Pulse=1, concentration range 0.3-10 µM
[10] = N Type IC50 Data Qpatch Pulse=15, Pulse=15, concentration range 0.3-10 µM

T1 sequence (Q00975 whole entry): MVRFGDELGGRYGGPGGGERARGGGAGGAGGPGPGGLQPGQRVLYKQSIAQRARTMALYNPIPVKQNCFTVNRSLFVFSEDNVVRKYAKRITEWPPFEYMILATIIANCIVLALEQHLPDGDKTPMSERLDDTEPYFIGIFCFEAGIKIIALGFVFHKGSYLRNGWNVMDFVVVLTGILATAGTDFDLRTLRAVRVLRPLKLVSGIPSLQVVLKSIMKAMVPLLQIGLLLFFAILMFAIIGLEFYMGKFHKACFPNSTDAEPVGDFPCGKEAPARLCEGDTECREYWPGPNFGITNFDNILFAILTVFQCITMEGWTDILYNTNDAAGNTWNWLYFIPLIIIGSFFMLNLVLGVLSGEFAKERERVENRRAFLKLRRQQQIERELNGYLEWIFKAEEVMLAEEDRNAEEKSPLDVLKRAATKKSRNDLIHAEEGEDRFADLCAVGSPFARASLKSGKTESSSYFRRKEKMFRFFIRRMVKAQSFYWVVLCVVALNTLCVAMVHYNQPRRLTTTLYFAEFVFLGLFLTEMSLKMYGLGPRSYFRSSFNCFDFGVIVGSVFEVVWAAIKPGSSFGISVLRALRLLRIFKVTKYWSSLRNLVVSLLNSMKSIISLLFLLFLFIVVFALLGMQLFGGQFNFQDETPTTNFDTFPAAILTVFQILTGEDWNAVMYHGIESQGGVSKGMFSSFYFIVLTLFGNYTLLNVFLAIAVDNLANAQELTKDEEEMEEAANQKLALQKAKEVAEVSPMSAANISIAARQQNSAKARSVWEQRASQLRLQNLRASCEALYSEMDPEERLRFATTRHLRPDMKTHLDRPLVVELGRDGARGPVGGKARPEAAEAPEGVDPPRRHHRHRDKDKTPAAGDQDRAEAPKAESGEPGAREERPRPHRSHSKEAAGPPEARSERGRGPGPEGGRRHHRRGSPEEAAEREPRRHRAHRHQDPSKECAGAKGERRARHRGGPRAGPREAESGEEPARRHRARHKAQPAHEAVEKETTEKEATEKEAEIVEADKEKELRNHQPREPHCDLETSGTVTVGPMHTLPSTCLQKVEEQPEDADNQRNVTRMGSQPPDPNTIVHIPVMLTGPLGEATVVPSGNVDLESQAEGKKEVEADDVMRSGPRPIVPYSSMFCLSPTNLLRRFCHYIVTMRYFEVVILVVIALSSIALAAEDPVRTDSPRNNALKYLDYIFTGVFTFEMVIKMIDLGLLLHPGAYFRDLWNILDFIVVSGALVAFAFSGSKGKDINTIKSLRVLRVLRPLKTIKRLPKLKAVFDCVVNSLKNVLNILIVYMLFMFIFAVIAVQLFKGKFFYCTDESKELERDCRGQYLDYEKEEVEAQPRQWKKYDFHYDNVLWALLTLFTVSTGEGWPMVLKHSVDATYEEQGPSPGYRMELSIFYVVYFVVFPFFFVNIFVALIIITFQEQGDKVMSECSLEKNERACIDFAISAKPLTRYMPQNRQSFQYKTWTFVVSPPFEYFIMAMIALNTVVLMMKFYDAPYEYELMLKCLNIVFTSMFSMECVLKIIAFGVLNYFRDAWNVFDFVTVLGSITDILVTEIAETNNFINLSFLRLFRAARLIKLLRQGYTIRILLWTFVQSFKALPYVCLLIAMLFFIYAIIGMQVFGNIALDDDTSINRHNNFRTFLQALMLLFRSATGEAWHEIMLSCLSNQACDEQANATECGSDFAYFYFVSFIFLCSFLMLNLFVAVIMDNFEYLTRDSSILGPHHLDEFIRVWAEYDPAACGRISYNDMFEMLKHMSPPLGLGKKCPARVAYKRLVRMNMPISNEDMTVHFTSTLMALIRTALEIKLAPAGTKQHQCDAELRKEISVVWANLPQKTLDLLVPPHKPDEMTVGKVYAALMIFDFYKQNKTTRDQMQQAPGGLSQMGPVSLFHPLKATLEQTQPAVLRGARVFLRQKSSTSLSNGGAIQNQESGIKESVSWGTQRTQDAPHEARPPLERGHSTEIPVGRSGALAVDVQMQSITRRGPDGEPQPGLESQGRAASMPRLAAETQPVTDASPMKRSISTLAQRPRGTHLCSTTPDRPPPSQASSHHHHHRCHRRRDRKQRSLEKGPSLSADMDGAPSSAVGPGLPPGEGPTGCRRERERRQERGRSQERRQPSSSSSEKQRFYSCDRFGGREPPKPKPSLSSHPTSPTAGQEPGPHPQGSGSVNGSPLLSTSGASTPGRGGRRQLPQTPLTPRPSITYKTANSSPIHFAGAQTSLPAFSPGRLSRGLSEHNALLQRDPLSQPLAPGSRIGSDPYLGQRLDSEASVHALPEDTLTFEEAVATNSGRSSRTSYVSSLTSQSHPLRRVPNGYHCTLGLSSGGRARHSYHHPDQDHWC
T1 sequence (P54284 whole entry partner): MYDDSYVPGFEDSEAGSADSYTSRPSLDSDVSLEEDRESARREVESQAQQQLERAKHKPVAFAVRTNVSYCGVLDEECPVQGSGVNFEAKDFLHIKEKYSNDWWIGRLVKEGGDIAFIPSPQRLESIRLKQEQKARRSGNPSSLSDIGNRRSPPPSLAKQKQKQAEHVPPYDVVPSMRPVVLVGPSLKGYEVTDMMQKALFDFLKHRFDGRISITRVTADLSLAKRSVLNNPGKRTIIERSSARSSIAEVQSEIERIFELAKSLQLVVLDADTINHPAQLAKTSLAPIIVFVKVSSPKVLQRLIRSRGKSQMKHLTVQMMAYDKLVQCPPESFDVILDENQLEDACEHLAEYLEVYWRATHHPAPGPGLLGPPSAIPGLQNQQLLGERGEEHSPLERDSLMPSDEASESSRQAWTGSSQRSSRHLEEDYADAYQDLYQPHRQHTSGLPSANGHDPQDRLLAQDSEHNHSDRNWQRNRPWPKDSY
T1 sequence (P54289 25-956 partner limits assumed): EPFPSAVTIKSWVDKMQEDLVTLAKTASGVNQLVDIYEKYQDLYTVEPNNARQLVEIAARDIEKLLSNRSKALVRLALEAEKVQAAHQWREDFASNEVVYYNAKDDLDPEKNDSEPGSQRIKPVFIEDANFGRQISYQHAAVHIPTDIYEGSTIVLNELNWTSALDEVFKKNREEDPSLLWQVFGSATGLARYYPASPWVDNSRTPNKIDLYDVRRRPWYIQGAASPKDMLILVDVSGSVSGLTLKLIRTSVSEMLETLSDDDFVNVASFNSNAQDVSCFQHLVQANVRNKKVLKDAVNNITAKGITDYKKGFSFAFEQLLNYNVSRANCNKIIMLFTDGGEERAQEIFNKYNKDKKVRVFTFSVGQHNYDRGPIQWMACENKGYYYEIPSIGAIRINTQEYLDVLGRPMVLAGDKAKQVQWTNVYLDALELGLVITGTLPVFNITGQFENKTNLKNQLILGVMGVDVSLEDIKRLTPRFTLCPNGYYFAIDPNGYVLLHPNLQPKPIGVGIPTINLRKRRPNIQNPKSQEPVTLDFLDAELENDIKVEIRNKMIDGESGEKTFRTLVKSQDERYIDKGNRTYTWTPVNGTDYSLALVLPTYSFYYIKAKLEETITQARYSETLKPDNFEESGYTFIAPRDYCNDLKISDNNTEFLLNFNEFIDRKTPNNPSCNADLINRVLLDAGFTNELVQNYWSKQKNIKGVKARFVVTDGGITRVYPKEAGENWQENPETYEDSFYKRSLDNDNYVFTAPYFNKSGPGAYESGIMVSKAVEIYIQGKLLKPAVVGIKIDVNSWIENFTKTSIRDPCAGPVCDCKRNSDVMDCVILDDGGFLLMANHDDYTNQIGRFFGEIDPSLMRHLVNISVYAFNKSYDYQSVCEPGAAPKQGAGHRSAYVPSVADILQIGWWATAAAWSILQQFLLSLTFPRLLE
T1 sequence (P54289 957-1103 partner limits assumed): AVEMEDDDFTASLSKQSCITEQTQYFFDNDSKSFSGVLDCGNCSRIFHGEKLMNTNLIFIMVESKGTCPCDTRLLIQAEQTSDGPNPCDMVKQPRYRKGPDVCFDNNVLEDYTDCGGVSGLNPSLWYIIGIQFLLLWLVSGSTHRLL

Cn1cnnc1-c1nc(C2CC(C)(C)OC(C)(C)C2)cn1-c1ccc(Cl)cc1 [Compound 26, 3-(1-(4-chlorophenyl)-4-(2,2,6,6-tetramethyltetrahydro-2H-pyran-4-yl)-1H-imidazol-2-yl)-4-methyl-4H-1,2,4-triazole]
pIC50 (human N-type Ca channel [1]): 5.24
pIC50 (human N-type Ca channel [2]; [3]): < 6.00
pIC50 (human N-type Ca channel [2]; [4]): < 6.00

COc1ncccc1-c1nc(C2CC(C)(C)OC(C)(C)C2)cn1Cc1ccccc1Cl [Compound 27, 3-(1-(2-chlorobenzyl)-4-(2,2,6,6-tetramethyltetrahydro-2H-pyran-4-yl)-1H-imidazol-2-yl)-2-methoxypyridine]
pIC50 (human N-type Ca channel [1]): 5.19
pIC50 (human N-type Ca channel [2]; N Type IC50 Data Qpatch Pulse=15, Pulse=15, concentration range 0.01-0.3 µM): 5.72
N Type IC50 Data Qpatch Pulse=1 (human N-type Ca channel [2]; [5]): poor fit(0.01-0.3 µM)

COc1ncccc1-c1nc(C2CC(C)(C)OC(C)(C)C2)cn1Cc1ccc(Cl)cc1 [Compound 28, 3-(1-(4-chlorobenzyl)-4-(2,2,6,6-tetramethyltetrahydro-2H-pyran-4-yl)-1H-imidazol-2-yl)-2-methoxypyridine]
pIC50 (human N-type Ca channel [1]): 5.79
N Type IC50 Data Qpatch Pulse=1 (human N-type Ca channel [2]; [5]): poor fit(0.01-0.3 µM)
N Type IC50 Data Qpatch Pulse=15 (human N-type Ca channel [2]; [6]): poor fit(0.01-0.3 µM)

COc1ncccc1-c1nc(C2CC(C)(C)OC(C)(C)C2)cn1-c1ccc(C#N)c(C(F)(F)F)c1 [Compound 29, 4-(2-(2-methoxypyridin-3-yl)-4-(2,2,6,6-tetramethyltetrahydro-2H-pyran-4-yl)-1H-imidazol-1-yl)-2-(trifluoromethyl) benzonitrile]
pIC50 (human N-type Ca channel [1]): 6.31
N Type IC50 Data Qpatch Pulse=1 (human N-type Ca channel [2]; [5]): poor fit(0.01-0.3 µM)
N Type IC50 Data Qpatch Pulse=15 (human N-type Ca channel [2]; [6]): poor fit(0.01-0.3 µM)

COc1ncccc1-c1nc(C2CC(C)(C)OC(C)(C)C2)cn1-c1ccc(F)cc1F [Compound 30, 3-(1-(2,4-difluorophenyl)-4-(2,2,6,6-tetramethyltetrahydro-2H-pyran-4-yl)-1H-imidazol-2-yl)-2-methoxypyridine]
pIC50 (human N-type Ca channel [1]): 6.49
inhibition at 10 µM (human N-type Ca channel [2]; [7]): 67%
inhibition at 10 µM (human N-type Ca channel [2]; read-out: Qpatch Pulse=15 (percent inhibition)): 35%

COc1ncccc1-c1nc(C2CC(C)(C)OC(C)(C)C2)cn1-c1cccc(F)c1F [Compound 31, 3-(1-(2,3-difluorophenyl)-4-(2,2,6,6-tetramethyltetrahydro-2H-pyran-4-yl)-1H-imidazol-2-yl)-2-methoxypyridine]
pIC50 (human N-type Ca channel [1]): 6.11
pIC50 (human N-type Ca channel [2]; N Type IC50 Data Qpatch Pulse=1, Pulse=1, concentration range 0.01-0.3 µM): 5.80
N Type IC50 Data Qpatch Pulse=15 (human N-type Ca channel [2]; [6]): poor fit(0.01-0.3 ,u.M)

COc1ccccc1-c1nc(C2CC(C)(C)OC(C)(C)C2)cn1-c1cccc(C#N)c1 [Compound 32, 3-(2-(2-methoxyphenyl)-4-(2,2,6,6-tetramethyltetrahydro-2H-pyran-4-yl)-1H-imidazol-1-yl)benzonitrile]
pIC50 (human N-type Ca channel [1]): 6.56
pIC50 (human N-type Ca channel [2]; [3]): < 6.00
pIC50 (human N-type Ca channel [2]; [8]): < 6.00

COc1cnccc1-c1nc(C2CC(C)(C)OC(C)(C)C2)cn1-c1ccc(F)c(F)c1 [Compound 33, 4-(1-(3,4-difluorophenyl)-4-(2,2,6,6-tetramethyltetrahydro-2H-pyran-4-yl)-1H-imidazol-2-yl)-3-methoxypyridine]
pIC50 (human N-type Ca channel [1]): 6.34
pIC50 (human N-type Ca channel [2]; [3]): < 6.00
pIC50 (human N-type Ca channel [2]; [8]): < 6.00

COc1cc(-n2cc(C3CC(C)(C)OC(C)(C)C3)nc2-c2ccccc2OC)ccc1C#N [Compound 34, 2-methoxy-4-(2-(2-methoxyphenyl)-4-(2,2,6,6-tetramethyltetrahydro-2H-pyran-4-yl)-1H-imidazol-1-yl)benzonitrile]
pIC50 (human N-type Ca channel [1]): 5.79
pIC50 (human N-type Ca channel [2]; [8]): < 6.00

COc1ccccc1-c1nc(C2CC(C)(C)OC(C)(C)C2)cn1-c1ccc(C#N)cc1F [Compound 36, 3-fluoro-4-(2-(2-methoxyphenyl)-4-(2,2,6,6-tetramethyltetrahydro-2H-pyran-4-yl)-1H-imidazol-1-yl)benzonitrile]
pIC50 (human N-type Ca channel [1]): 7.40
pIC50 (human N-type Ca channel [2]; [3]): 6.42
pIC50 (human N-type Ca channel [2]; [8]): < 6.00

COc1ccc(-n2cc(C3CC(C)(C)OC(C)(C)C3)nc2-c2ccccc2OC)cc1C#N [Compound 37, 2-methoxy-5-(2-(2-methoxyphenyl)-4-(2,2,6,6-tetramethyltetrahydro-2H-pyran-4-yl)-1H-imidazol-1-yl)benzonitrile]
pIC50 (human N-type Ca channel [1]): 6.37
pIC50 (human N-type Ca channel [2]; read-out: N Type IC50 Data Qpatch Pulse=1, Pulse=1, concentration range 0.01-1 µM): < 6.00
pIC50 (human N-type Ca channel [2]; [8]): < 6.00

COc1ccccc1-c1nc(C2CC(C)(C)OC(C)(C)C2)cn1-c1ccc(Cl)cn1 [Compound 39, 5-chloro-2-(2-(2-methoxyphenyl)-4-(2,2,6,6-tetramethyltetrahydro-2H-pyran-4-yl)-1H-imidazol-1-yl)pyridine]
pIC50 (human N-type Ca channel [1]): 6.79
pIC50 (human N-type Ca channel [2]; [9]): 5.77
pIC50 (human N-type Ca channel [2]; [10]): 5.72

COc1ncccc1-c1nc(C2CC(C)(C)OC(C)(C)C2)cn1-c1ccc(F)c(F)c1 [Compound 40, 3-(1-(3,4-difluorophenyl)-4-(2,2,6,6-tetramethyltetrahydro-2H-pyran-4-yl)-1H-imidazol-2-yl)-2-methoxypyridine]
pIC50 (human N-type Ca channel [1]): 6.09
pIC50 (human N-type Ca channel [2]; [10]): 5.71
inhibition at 10 µM (human N-type Ca channel [2]; [7]): 52%

COc1ccccc1-c1nc(C2CC(C)(C)OC(C)(C)C2)cn1-c1ccc(Cl)c(F)c1 [Compound 41, 1-(4-chloro-3-fluorophenyl)-2-(2-methoxyphenyl)-4-(2,2,6,6-tetramethyltetrahydro-2H-pyran-4-yl)-1H-imidazole]
pIC50 (human N-type Ca channel [1]): 6.88
pIC50 (human N-type Ca channel [2]; [10]): 6.22
inhibition at 10 µM (human N-type Ca channel [2]; [7]): 71%

COc1ccccc1-c1nc(C2CC(C)(C)OC(C)(C)C2)cn1-c1ccc(F)c(F)c1 [Compound 42, 1-(31,4-difluorophenyl)-2-(2-methoxyphenyl)-4-(2,2,6,6-tetramethyltetrahydro-2H-pyran-4-yl)-1H-imidazole]
pIC50 (human N-type Ca channel [1]): 6.71
pIC50 (human N-type Ca channel [2]; [9]): 5.59
pIC50 (human N-type Ca channel [2]; [10]): 5.97

COc1ncccc1-c1nc(C2CC(C)(C)OC(C)(C)C2)cn1-c1ccc(C#N)cc1 [Compound 43, 4-(2-(2-methoxypyridin-3-yl)-4-(2,2,6,6-tetramethyltetrahydro-2H-pyran-4-yl)-1H-imidazol-1-yl)benzonitrile]
pIC50 (human N-type Ca channel [1]): 6.54
pIC50 (human N-type Ca channel [2]; [10]): 5.12
inhibition at 10 µM (human N-type Ca channel [2]; [7]): 34%

COc1ncccc1-c1nc(C2CC(C)(C)OC(C)(C)C2)cn1-c1ccc(Cl)c(F)c1 [Compound 44, 3-(1-(4-chloro-3-fluorophenyl)-4-(2,2,6,6-tetramethyltetrahydro-2H-pyran-4-yl)-1H-imidazol-2-yl)-2-methoxypyridine]
pIC50 (human N-type Ca channel [1]): 6.85
pIC50 (human N-type Ca channel [2]; [9]): 5.54
pIC50 (human N-type Ca channel [2]; [10]): 5.51

COc1ccccc1-c1nc(C2CC(C)(C)OC(C)(C)C2)cn1-c1ccc(F)c(Cl)c1 [Compound 45, 1-(3-chloro-4-fluorophenyl)-2-(2-methoxyphenyl)-4-(2,2,6,6-tetramethyltetrahydro-2H-pyran-4-yl)-1H-imidazole]
pIC50 (human N-type Ca channel [1]): 6.83
pIC50 (human N-type Ca channel [2]; [9]): 5.66
pIC50 (human N-type Ca channel [2]; [10]): 6.17

COc1ncccc1-c1nc(C2CC(C)(C)OC(C)(C)C2)cn1-c1ccc(F)c(Cl)c1 [Compound 46, 3-(1-(3-chloro-4-fluorophenyl)-4-(2,2,6,6-tetramethyltetrahydro-2H-pyran-4-yl)-1H-imidazol-2-yl)-2-methoxypyridine]
pIC50 (human N-type Ca channel [1]): 6.59
pIC50 (human N-type Ca channel [2]; [10]): 5.60

COc1nccnc1-c1nc(C2CC(C)(C)OC(C)(C)C2)cn1-c1ccc(F)cc1 [Compound 47, 2-(1-(4-fluorophenyl)-4-(2,2,6,6-tetramethyltetrahydro-2H-pyran-4-yl)-1H-imidazol-2-yl)-3-methoxypyrazine]
pIC50 (human N-type Ca channel [1]): 5.81
pIC50 (human N-type Ca channel [2]; [3]): < 6.00
pIC50 (human N-type Ca channel [2]; [8]): < 6.00

COc1ncccc1-c1nc(C2CC(C)(C)OC(C)(C)C2)cn1-c1cccc(C#N)c1 [Compound 48, 3-(2-(2-methoxypyridin-3-yl)-4-(2,2,6,6-tetramethyltetrahydro-2H-pyran-4-yl)-1H-imidazol-1-yl)benzonitrile]
pIC50 (human N-type Ca channel [1]): 5.27
pIC50 (human N-type Ca channel [2]; [3]): 6.65
pIC50 (human N-type Ca channel [2]; [4]): 6.07

Reference: EP3033337B1, “SUBSTITUTED IMIDAZOLES AS N-TYPE CALCIUM CHANNEL BLOCKERS” (Janssen Pharmaceutica NV, priority 2013, dated 2015)
